Tested on: T1, PPO (polyphenoloxidase from Pacific white shrimp cephalothorax)
T1 construct: gene proPO; crude native extract of cephalothorax powder; not purified; isoenzyme not identified (hemocyanin-derived activity not excluded); docking model 3WKY is not the assayed protein
Assay: dopachrome absorbance at […] nm, Lineweaver-Burk
Type: biochemical, Penaeus vannamei
Conditions: no inhibitor (0 mg/mL); crude extract; pH 6.0, 45 °C per activity assay; unit as in table footnote but substrate was dosed 2.5-25 mM, so unit is doubtful (possibly mM)

Concentration (mg/mL) / 0: 7.0695 mg/mL
SMILES: N[C@@H](Cc1ccc(O)c(O)c1)C(=O)O [L-DOPA]

— paper PMC10385636, “Inhibition Mechanism of Chitooligosaccharide-Polyphenol Conjugates toward Polyphenoloxidase from Shrimp Cephalothorax” (Molecules, 2023)
